Measurements taken from paper PMC10791936, “Engineering allosteric inhibition of homoserine dehydrogenase by semi-rational saturation mutagenesis screening” (Frontiers in Bioengineering and Biotechnology, 2024).
Numbering of substitutions follows the chain as printed. In names and notes the source's numbering stands. One block for each molecule: values may come before it.

Key:
CgHSD [1] = biological target: T1, CgHSD (Corynebacterium glutamicum, UniProt P08499, A384D); assay: enzyme activity inhibition, NADPH formation; format: biochemical; settings: allosteric; 50 mM L-isoleucine; stated gain
T1 construct: gene hom; full-length hom in pET-28a, N-terminal His6 tag, expressed in E. coli Transetta (DE3), Ni purified; homotetramer by SEC
T1 sequence (P08499 whole entry A384D): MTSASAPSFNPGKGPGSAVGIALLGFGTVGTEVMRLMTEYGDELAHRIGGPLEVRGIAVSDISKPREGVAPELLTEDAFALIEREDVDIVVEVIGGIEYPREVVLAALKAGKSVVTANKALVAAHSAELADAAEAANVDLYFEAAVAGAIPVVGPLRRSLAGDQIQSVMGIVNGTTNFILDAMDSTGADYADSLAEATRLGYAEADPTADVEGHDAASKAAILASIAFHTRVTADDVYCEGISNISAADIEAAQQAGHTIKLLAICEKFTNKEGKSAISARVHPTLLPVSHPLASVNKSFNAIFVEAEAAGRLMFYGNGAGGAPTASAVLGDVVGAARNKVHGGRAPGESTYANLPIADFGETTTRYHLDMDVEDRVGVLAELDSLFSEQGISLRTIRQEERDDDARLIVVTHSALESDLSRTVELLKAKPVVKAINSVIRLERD

CgHSD [2] = biological target: T2, CgHSD (Corynebacterium glutamicum, UniProt P08499); assay: enzyme activity inhibition, NADPH formation; format: biochemical; settings: feedback inhibitor, allosteric; 5 mM L-isoleucine
T2 construct: gene hom; full-length hom in pET-28a, N-terminal His6 tag, expressed in E. coli Transetta (DE3), Ni purified; homotetramer by SEC

CgHSD [3] = biological target: T3, CgHSD (Corynebacterium glutamicum, UniProt P08499, G378E); assay: enzyme activity inhibition, NADPH formation; format: biochemical; settings: allosteric; 50 mM L-isoleucine; stated gain
T3 construct: gene hom; full-length hom in pET-28a, N-terminal His6 tag, expressed in E. coli Transetta (DE3), Ni purified; homotetramer by SEC
T3 sequence (P08499 whole entry G378E): as the sequence (P08499 whole entry A384D) above, with G378E, D384A counted along it

CgHSD [4] = biological target: T4, CgHSD (Corynebacterium glutamicum, UniProt P08499, I397V); assay: enzyme activity inhibition, NADPH formation; format: biochemical; settings: allosteric; 50 mM L-isoleucine; stated gain
T4 construct: gene hom; full-length hom in pET-28a, N-terminal His6 tag, expressed in E. coli Transetta (DE3), Ni purified; homotetramer by SEC
T4 sequence (P08499 whole entry I397V): as the sequence (P08499 whole entry A384D) above, with D384A, I397V counted along it

CgHSD [5] = biological target: T4, CgHSD; assay: enzyme activity inhibition, NADPH formation; format: biochemical; settings: allosteric; 10 mM L-threonine; stated gain
CgHSD [6] = biological target: T3, CgHSD; assay: enzyme activity inhibition, NADPH formation; format: biochemical; settings: allosteric; 50 mM L-threonine; stated gain
CgHSD [7] = biological target: T1, CgHSD; assay: enzyme activity inhibition, NADPH formation; format: biochemical; settings: allosteric; 10 mM L-threonine; stated gain
CgHSD [8] = biological target: T2, CgHSD; assay: enzyme activity inhibition, NADPH formation; format: biochemical; settings: feedback inhibitor, allosteric; 1 mM L-threonine
[9] = biological target: the molecule itself; assay: SEC; apparent molecular mass from a standard curve; peaks at 11.8 mL of elution volume; column and buffer not shown (Supplementary Figure S2)

% activity maintained at 50 mM (CgHSD [1]): 76.5%
% activity loss at 5 mM (CgHSD [2]): > 75%
% activity maintained at 50 mM (CgHSD [3]): 61.0%
% activity maintained at 50 mM (CgHSD [4]): 50.1%
Molecule: CC[C@H](C)[C@H](N)C(=O)O [L-isoleucine]

% activity kept at 10 mM (CgHSD [5]): > 90%
% retained activity at 50 mM (CgHSD [6]): 52.7%
% activity kept at 10 mM (CgHSD [7]): > 90%
% activity loss at 1 mM (CgHSD [8]): > 80%
Molecule: C[C@@H](O)[C@H](N)C(=O)O [L-threonine]

B1: Homoserine dehydrogenase from Corynebacterium glutamicum (CgHSD), wild type (enzyme, Corynebacterium glutamicum ATCC 13032, UniProt P08499 1-445, looked up)
chain: MTSASAPSFNPGKGPGSAVGIALLGFGTVGTEVMRLMTEYGDELAHRIGGPLEVRGIAVSDISKPREGVAPELLTEDAFALIEREDVDIVVEVIGGIEYPREVVLAALKAGKSVVTANKALVAAHSAELADAAEAANVDLYFEAAVAGAIPVVGPLRRSLAGDQIQSVMGIVNGTTNFILDAMDSTGADYADSLAEATRLGYAEADPTADVEGHDAASKAAILASIAFHTRVTADDVYCEGISNISAADIEAAQQAGHTIKLLAICEKFTNKEGKSAISARVHPTLLPVSHPLASVNKSFNAIFVEAEAAGRLMFYGNGAGGAPTASAVLGDVVGAARNKVHGGRAPGESTYANLPIADFGETTTRYHLDMDVEDRVGVLAELASLFSEQGISLRTIRQEERDDDARLIVVTHSALESDLSRTVELLKAKPVVKAINSVIRLERD
notes: Homoserine dehydrogenase (hom gene) of Corynebacterium glutamicum ATCC 13032, amplified from genomic DNA into pET-28a (pET-hom); printed mass of the monomer 46.4 kDa; also called wild-type CgHSD
stoichiometry N [9]: 4

B2: Homoserine dehydrogenase from Corynebacterium glutamicum (CgHSD), A384D mutant (enzyme, Corynebacterium glutamicum ATCC 13032, UniProt P08499 1-445, looked up)
chain: B1 chain with A384D
stoichiometry N [9]: 4

B3: Homoserine dehydrogenase from Corynebacterium glutamicum (CgHSD), I397V mutant (enzyme, Corynebacterium glutamicum ATCC 13032, UniProt P08499 1-445, looked up)
chain: B1 chain with I397V
stoichiometry N [9]: 4
